Data on 10 compounds can be found in patent publication US7691854B2, “Dihydropyridine derivatives for use as human neutrophil elastase inhibitors” (Bayer Schering Pharma Aktiengesellschaft, priority 2002, dated 2010).

One experiment concerns the target T1, human neutrophil elastase (HNE) (Homo sapiens, UniProt P08246).
T1 construct: purchased SERVA Electrophoresis GmbH, Heidelberg, Germany #20927.01
T1 sequence (P08246 30-267): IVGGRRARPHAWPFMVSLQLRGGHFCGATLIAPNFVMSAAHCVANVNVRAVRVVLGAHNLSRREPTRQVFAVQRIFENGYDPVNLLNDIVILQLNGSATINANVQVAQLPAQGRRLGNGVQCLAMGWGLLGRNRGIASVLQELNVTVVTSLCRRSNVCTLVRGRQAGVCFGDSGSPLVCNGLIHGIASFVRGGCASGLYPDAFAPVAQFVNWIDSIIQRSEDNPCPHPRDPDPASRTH
Description: In vitro inhibition of HNE using a fluorogenic peptide substrate (MeOSuc-Ala-Ala-Pro-Val-AMC). Type of experiment: biochemical. The note with it: 384 MTP format. The method, then: I. In Vitro Enzyme Assays of Human Neutrophil Elastase (HNE)
• assay buffer: 0.1 M HEPES-NaOH buffer pH 7.4, 0.5 M NaCl, 0.1% (w/v) bovine serum albumin; • suitable concentration (see below) of HNE (18 U/mg lyophil., #20927.01, SERVA Electrophoresis GmbH, Heidelberg, Germany) in assay buffer; • suitable concentration (see below) of substrate in assay buffer; • suitable concentration of test compounds diluted with assay buffer from a 10 mM stock solution in DMSO.
In Vitro Inhibition of HNE Using a Fluorogenic Peptide Substrate (Continuous Read-Out Signal, 384 MTP Assay Format):
In this protocol, the elastase substrate MeOSuc-Ala-Ala-Pro-Val-AMC (#324740, Calbiochem-Novabiochem Corporation, Merck KGaA, Darmstadt, Germany) is used. The test solution is prepared by mixing 10 μl of test compound dilution, 20 μl of HNE enzyme dilution (final concentration 8-0.4 μU/ml, routinely 2.1 μU/ml) and 20 μl of substrate dilution (final concentration 1 mM-1 μM, routinely 20 μM), respectively. The solution is incubated for 0-2 hrs at 37° C. (routinely one hour). The fluorescence of the liberated AMC due to the enzymatic reaction is measured at 37° C. (TECAN spectra fluor plus plate reader). The rate of increase of the fluorescence (ex. 395 nm, em. 460 nm) is proportional to elastase activity. IC50 values are determined by RFU-versus-[I] plots. Km and Km(app.) values are determined by Lineweaver-Burk plots and converted to Ki values by Dixon plots.
As usually defined, the IC50 is the concentration at which inhibition is half-maximal. `CCOC(=O)C1=C(N)N(c2cccc(C(F)(F)F)c2)C(COC)=C(C(=O)OC)C1c1ccc(C#N)cc1` (stereo not shown) [Example 25] gave a 50% inhibitory concentration (IC50) of 40 nM.

Take `CCOC(=O)C1=C(C)N(c2cccc(C(F)(F)F)c2)C(N)=C(C(=O)OCC)C1c1ccc(Br)nc1` (stereo not shown) [Example 43]: inhibition was half-maximal at 800 nM (IC50).

`CC1=C(C#N)C(c2ccc(C#N)cc2)C(C(N)=O)=C(N)N1c1cccc(C(F)(F)F)c1` (stereo not shown) [Example 4, 2-Amino-5-cyano-4-(4-cyanophenyl)-6-methyl-1-[3-(trifluoromethyl)phenyl]-1,4-dihydro-3-pyridinecarboxamide] yielded an IC50 of 27 nM.

`CCOC(=O)C1=C(C)N(c2cccc(C(F)(F)F)c2)C(N)=C(C(=O)OCC)C1c1ccc(C#N)cc1` (stereo not shown) [Example 2, Diethyl 2-amino-4-(4-cyanophenyl)-6-methyl-1-[3-(trifluoromethyl)phenyl]-1,4-dihydro-3,5-pyridine-dicarboxylate] returned an IC50 of 30 nM.

In turn, `CC(=O)C1=C(N)N(c2cccc(C(F)(F)F)c2)C(C)=C(C#N)C1c1ccc(C#N)cc1` (stereo not shown) [Example 12, 5-Acetyl-6-amino-4-(4-cyanophenyl)-2-methyl-1-[3-(trifluoromethyl)phenyl]-1,4-dihydro-3-pyridinecarbonitrile] registered an IC50 of 90 nM.

`CCNC(=O)NC1=C(C(=O)OCC)C(c2ccc(C#N)cc2)C(C(=O)OCC)=C(C)N1c1cccc(C(F)(F)F)c1` (stereo not shown) [Example 44, Diethyl 4-(4-cyanophenyl)-2-{[(ethylamino)carbonyl]amino}-6-methyl-1-[3-(trifluoromethyl)phenyl]-1,4-dihydro-3,5-pyridinedicarboxylate] showed an IC50 of 130 nM.

`CCOC(=O)C1=C(C)N(c2cccc(C(F)(F)F)c2)C(N)=C(C2=NC(C)(C)CO2)C1c1ccc(C#N)cc1` (stereo not shown) [Example 50, Ethyl 6-amino-4-(4-cyanophenyl)-5-(4,4-dimethyl-4,5-dihydro-1,3-oxazol-2-yl)-2-methyl-1-[3-(trifluoromethyl)phenyl]-1,4-dihydro-3-pyridinecarboxylate] had an IC50 of 10 nM.

`CCOC(=O)C1=C(C)N(c2cccc(C(F)(F)F)c2)C(N(C)C)=C(C(=O)OCC)C1c1ccc(C#N)cc1` (stereo not shown) [Example 47, Diethyl 4-(4-cyanophenyl)-2-(dimethylamino)-6-methyl-1-[3-(trifluoromethyl)-phenyl]-1,4-dihydro-3,5-pyridinedicarboxylate]: it took 500 nM to reach half-maximal inhibition (IC50).

Another experiment concerns human polymorphonuclear cells (PMNs). The experiment is described as follows: In vitro PMN elastolysis assay (tritiated elastin). Type of experiment: cell-based. The settings on record: at 1.2 μM; n=3 different donors at 3.6×10^5 cells per well. The method, then: In Vitro PMN Elastolysis Assay:
This assay is used to determine the elastolytic potential of human polymorphonuclear cells (PMNs) and assess the proportion of degradation due to, neutrophil elastase [cf. Z. W. She et al., Am. J. Respir. Cell. Mol. Biol. 9, 386-392 (1993)].
Tritiated elastin, in suspension, is coated on to a 96 well plate at 10 μg per well. Test and reference [ZD-0892 (J. Med. Chem. 40, 1876-1885, 3173-3181 (1997), WO 95/21855) and α1 protease inhibitor (α1PI)] compounds are added to the wells at the appropriate concentrations. Human PMNs are separated from peripheral venous blood of healthy donors and resuspended in culture media. The neutrophils are added to the coated wells at concentrations ranging between 1×10^6 to 1×10^5 cells per well. Porcine pancreatic elastase (1.3 μM) is used as a positive control for the assay, and α1PI (1.2 μM) is used as the positive inhibitor of neutrophil elastase. The cellular control is PMNs without compound at each appropriate cell density. The cells plus compounds are incubated in a humidified incubator at 37° C. for 4 hours. The plates are centrifuged to allow the harvest of cell supernatant only. The supernatant is transferred in 75 μl volumes to corresponding wells of a 96 well Lumaplate™ (solid scintillant containing plates). The plates are dried until no liquid is visible in the wells and read in a beta counter for 3 minutes per well. […]
Take “α1PI: α1 protease inhibitor, reference and positive inhibitor of neutrophil elastase”: the “inhibition of elastolysis of 3H-elastin (mean±s.e.m.)” value is given as 83.46±3.97%.

Still in this experiment, the particulars now being: n=2 different donors at 3.6×10^5 cells per well; read-out: IC50 (mean±s.e.m.).
Take `COc1ccc(C(=O)N[C@H](C(=O)N2CCC[C@H]2C(=O)N[C@H](C(=O)C(F)(F)F)C(C)C)C(C)C)cc1` [ZD-0892]: the IC50 came to 45.5 ± 7.75 nM.
